Assay results reported in publication PMC5554537 (Frontiers in Pharmacology, 2017).
Where two headings read alike, the source gives them in different places.

Columns and labels:
[1] = target: T1, mouse brain acetylcholinesterase (Mus musculus, UniProt P21836); assay: biochemical; settings: mouse brain homogenate, 37°C
T1 construct: from tissue; host or cells: mouse brain homogenate
T1 sequence (P21836 32-614): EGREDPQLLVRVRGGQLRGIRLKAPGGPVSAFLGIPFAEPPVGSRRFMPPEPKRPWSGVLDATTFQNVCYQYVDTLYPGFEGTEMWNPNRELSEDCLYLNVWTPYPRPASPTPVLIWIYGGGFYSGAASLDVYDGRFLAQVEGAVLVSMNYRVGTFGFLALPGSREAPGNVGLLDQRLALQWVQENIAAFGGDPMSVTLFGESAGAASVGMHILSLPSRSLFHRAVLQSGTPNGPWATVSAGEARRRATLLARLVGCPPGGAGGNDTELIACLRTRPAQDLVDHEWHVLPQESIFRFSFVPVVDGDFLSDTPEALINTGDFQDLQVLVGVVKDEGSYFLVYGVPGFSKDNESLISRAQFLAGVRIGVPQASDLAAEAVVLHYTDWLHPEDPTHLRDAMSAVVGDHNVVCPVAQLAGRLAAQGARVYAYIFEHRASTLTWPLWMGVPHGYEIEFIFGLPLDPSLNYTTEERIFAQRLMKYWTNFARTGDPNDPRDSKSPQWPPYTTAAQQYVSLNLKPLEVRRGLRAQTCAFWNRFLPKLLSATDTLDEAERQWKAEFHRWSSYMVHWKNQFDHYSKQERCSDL
Description: TABLE 10: Inhibition of mouse brain acetylcholinesterase activitya by SN30000 and related compounds […]
aThe acetylcholinesterase inhibition assay is based on Obregon et al., 2005. Mouse brain homogenate was prepared in potassium phosphate buffer (100 mM, pH 7.4), which was pre-incubated with dithiobisnitrobenzoate (final concentration 1 mM) at 37°C for 10 min. After adding acetylthiocholine (final concentration 0.6 mM), the formation of 5-thio-2-nitrobenzoate was measured by monitoring absorbance (Spectramax- M2 spectrophotometer) at 412 nm every 30 s for 10 min. Negative controls (DMSO or saline) and positive control […]
IC50 values are based on 3-4 deter minations per compound.

[2] = Stability in mouse plasma (QC samples); assay type: physicochemical
From the text: using octa-deuterated internal standards of SN30000, M13 and M14 synthesised as previously reported (Wang et al., 2012). Intra- and inter-day precision (expressed as relative standard deviation (RSD) and accuracy (expressed as percentage of the nominal value) were deter mined by analy sis of replicates (n=6) of low and high quality control (QC) samples on three different days. The lower limit of quantitation (LLOQ) was defined as the lowest concentration providing RSD and accuracy < 20%. Recovery from plasma and liver ho mogenates was tested at the three QC levels. The recoveries were evaluated by comparing extracted samples with blank extracted solutions spiked with analytes of the same amount.
Matrix effects, defined as the change in response due to the presence of other substances in the samples, were evaluated by comparing the analytes diluted into the blank plasma or liver extracted solution with that of the same stock solutions diluted in water. Three different concentration levels (low, medium and high QC) were evaluated by analysing three samples at each level. Accuracy , precision, recovery and matrix effects were all acceptable over the concentration ranges evaluated for plas ma (Supplementary Table 1) and for liver homogenates (Supplementary Table 2).
Stability of the analytes in mouse plasma (Supplementary Table 3) or liver homogenate (Supplementary Table 4) was confirmed during holding of QC samples on ice for up to 2 h under nor mal laboratory lighting, although there was a trend towards loss of SN30000 in plasma samples held in clear microcentrifuge tubes which may reflect the known photosensitivity of the compound (Gu et al., 2014). This loss was reduced by use of red microcentrifuge tubes, and eliminated by black tubes. Stability in both matrices was also confir med for one month storage at -80°C and for three freeze-thaw cycles, while MeOH-deproteinised samples w ere stable for 12 h at 4°C in the autosampler (Supplementary Tables

[3] = i.p. SN30000 186 mg/kg
[4] = plasma deproteinised in 3 vol MeOH, 12 h autosampler at 4°C, nominal SN30000 0.5, M14 0.25, M13 0.1 µM
[5] = plasma deproteinised in 3 vol MeOH, 12 h autosampler at 4°C, nominal SN30000 5, M14 2.5, M13 1 µM
[6] = plasma deproteinised in 3 vol MeOH, 12 h autosampler at 4°C, nominal SN30000 50, M14 25, M13 10 µM
[7] = plasma, 1 month at -80°C, nominal SN30000 5, M14 2.5, M13 1 µM
[8] = plasma, 1 month at -80°C, nominal SN30000 50, M14 25, M13 10 µM
[9] = plasma, 1 h on ice, black vial, nominal SN30000 0.5, M14 0.25, M13 0.1 µM
[10] = plasma, 1 h on ice, black vial, nominal SN30000 5, M14 2.5, M13 1 µM
[11] = plasma, 1 h on ice, black vial, nominal SN30000 50, M14 25, M13 10 µM
[12] = plasma, 1 h on ice, clear vial, nominal SN30000 0.5, M14 0.25, M13 0.1 µM
[13] = plasma, 1 h on ice, clear vial, nominal SN30000 5, M14 2.5, M13 1 µM
[14] = plasma, 1 h on ice, clear vial, nominal SN30000 50, M14 25, M13 10 µM
[15] = plasma, 1 h on ice, red vial, nominal SN30000 0.5, M14 0.25, M13 0.1 µM
[16] = plasma, 1 h on ice, red vial, nominal SN30000 5, M14 2.5, M13 1 µM
[17] = plasma, 1 h on ice, red vial, nominal SN30000 50, M14 25, M13 10 µM
[18] = plasma, 2 h on ice, black vial, nominal SN30000 0.5, M14 0.25, M13 0.1 µM
[19] = plasma, 2 h on ice, black vial, nominal SN30000 5, M14 2.5, M13 1 µM
[20] = plasma, 2 h on ice, black vial, nominal SN30000 50, M14 25, M13 10 µM
[21] = plasma, 2 h on ice, clear vial, nominal SN30000 0.5, M14 0.25, M13 0.1 µM
[22] = plasma, 2 h on ice, clear vial, nominal SN30000 5, M14 2.5, M13 1 µM
[23] = plasma, 2 h on ice, clear vial, nominal SN30000 50, M14 25, M13 10 µM
[24] = plasma, 2 h on ice, red vial, nominal SN30000 0.5, M14 0.25, M13 0.1 µM
[25] = plasma, 2 h on ice, red vial, nominal SN30000 5, M14 2.5, M13 1 µM
[26] = plasma, 2 h on ice, red vial, nominal SN30000 50, M14 25, M13 10 µM
[27] = plasma, three freeze-thaw cycles, nominal SN30000 0.5, M14 0.25, M13 0.1 µM
[28] = plasma, three freeze-thaw cycles, nominal SN30000 5, M14 2.5, M13 1 µM
[29] = plasma, three freeze-thaw cycles, nominal SN30000 50, M14 25, M13 10 µM
[30] = HT29 tumour, tumour-bearing mice
[31] = liver, HT29 tumour-bearing mice

With `[O-][n+]1nc(CCCN2CCOCC2)[n+]([O-])c2cc3c(cc21)CCC3` [SN30000, 3-(3-Morpholinopropyl)-7,8-dihydro-6H-indeno[5,6-e][1,2,4]triazine 1,4-dioxide] as the compound, how does the IC50 [1] read?
The IC50 was 131 µM.

What about the Bias [2, 4] of the same compound?
Its Bias is -0.12%.

What about the Measured conc [2, 4] of the same compound?
Its Measured conc is 0.50 µM.

And the Bias [2, 5]?
The Bias was -0.22%.

And the Measured conc [2, 5]?
Its Measured conc is 4.99 µM.

What about the Bias [2, 6] of the same compound?
The Bias was 7.93%.

What about the Measured conc [2, 6] of the same compound?
Its Measured conc is 53.97 µM.

And the Measured conc ([2]; plasma, 1 month at -80°C, nominal SN30000 0.5, M14 0.25, M13 0.1 µM)?
Its Measured conc is 0.48 µM.

And the Bias [2, 7]?
The Bias was 1.44%.

What about the Measured conc [2, 7] of the same compound?
Its Measured conc is 4.92 µM.

What about the Bias [2, 8] of the same compound?
Its Bias is 2.04%.

And the Measured conc [2, 8]?
Its Measured conc is 53.90 µM.

What about the Bias [2, 9] of the same compound?
Its Bias is -0.80%.

And the Measured conc [2, 9]?
Its Measured conc is 0.50 µM.

And the Bias [2, 10]?
The Bias was -7.17%.

What about the Measured conc [2, 10] of the same compound?
Its Measured conc is 4.64 µM.

And the Bias [2, 11]?
The Bias was 5.03%.

And the Measured conc [2, 11]?
The Measured conc was 52.5 µM.

And the Bias [2, 12]?
Its Bias is -7.83%.

What about the Measured conc [2, 12] of the same compound?
The Measured conc was 0.46 µM.

And the Bias [2, 13]?
Its Bias is -7.91%.

And the Measured conc [2, 13]?
The Measured conc was 4.60 µM.

And the Bias [2, 14]?
The Bias was -7.21%.

And the Measured conc [2, 14]?
The Measured conc was 46.39 µM.

And the Bias [2, 15]?
The Bias was -3.33%.

And the Measured conc [2, 15]?
The Measured conc was 0.48 µM.

What about the Bias [2, 16] of the same compound?
Its Bias is -7.29%.

And the Measured conc [2, 16]?
The Measured conc was 4.64 µM.

What about the Bias [2, 17] of the same compound?
The Bias was -4.85%.

What about the Measured conc [2, 17] of the same compound?
Its Measured conc is 47.57 µM.

What about the Bias [2, 18] of the same compound?
Its Bias is 1.31%.

What about the Measured conc [2, 18] of the same compound?
The Measured conc was 0.51 µM.

And the Bias [2, 19]?
The Bias was 0.11%.

And the Measured conc [2, 19]?
The Measured conc was 5.01 µM.

And the Bias [2, 20]?
The Bias was 2.32%.

What about the Measured conc [2, 20] of the same compound?
Its Measured conc is 51.16 µM.

What about the Bias [2, 21] of the same compound?
Its Bias is -14.4%.

And the Measured conc [2, 21]?
Its Measured conc is 0.43 µM.

And the Bias [2, 22]?
Its Bias is -12.3%.

What about the Measured conc [2, 22] of the same compound?
The Measured conc was 4.38 µM.

What about the Bias [2, 23] of the same compound?
The Bias was -14.9%.

And the Measured conc [2, 23]?
The Measured conc was 42.53 µM.

What about the Bias [2, 24] of the same compound?
Its Bias is -10.09%.

And the Measured conc [2, 24]?
Its Measured conc is 0.45 µM.

And the Bias [2, 25]?
The Bias was -12.57%.

And the Measured conc [2, 25]?
Its Measured conc is 4.37 µM.

What about the Bias [2, 26] of the same compound?
Its Bias is -8.13%.

What about the Measured conc [2, 26] of the same compound?
Its Measured conc is 45.94 µM.

And the Bias [2, 27]?
Its Bias is 0.56%.

And the Measured conc [2, 27]?
The Measured conc was 0.50 µM.

What about the Bias [2, 28] of the same compound?
The Bias was -2.87%.

And the Measured conc [2, 28]?
Its Measured conc is 4.86 µM.

What about the Bias [2, 29] of the same compound?
The Bias was 6.72%.

What about the Measured conc [2, 29] of the same compound?
Its Measured conc is 53.36 µM.

What about the “AUC (extrapolated to infinity)” value [3, 30] of the same compound?
Its value is 111 µmol·h/kg.

And the Cmax [3, 30]?
Its Cmax is 69.9 ± 12.1 µmol/kg.

What about the “AUC (extrapolated to infinity)” value ([3]; brain, non-tumour-bearing mice) of the same compound?
Its value is 158 µmol·h/kg.

What about the Cmax ([3]; brain, non-tumour-bearing mice) of the same compound?
Its Cmax is 217 ± 12 µmol/kg.

And the “AUC (extrapolated to infinity)” value [3, 31]?
The value was 164 µmol·h/kg.

What about the Cmax [3, 31] of the same compound?
Its Cmax is 172 ± 8 µmol/kg.

What about the “AUC (extrapolated to infinity)” value ([3]; liver, non-tumour-bearing mice) of the same compound?
Its value is 147 µmol·h/kg.

And the Cmax ([3]; liver, non-tumour-bearing mice)?
The Cmax was 164 ± 38 µmol/kg.

And the “AUC (extrapolated to infinity)” value ([3]; plasma, HT29 tumour-bearing mice)?
Its value is 159 µmol·h/kg.

What about the “AUC (extrapolated to infinity)” value ([3]; plasma, non-tumour-bearing mice) of the same compound?
Its value is 156 µmol·h/kg.
